Data as given in article PMC11503657 (Chemical Science, 2024).

Key:
CuAβ1–16 complex = CuAβ1–16 complex (Homo sapiens, UniProt P05067); assay type: biochemical; conditions: pH 7.4
CuZnAβ1–16 = CuZnAβ1–16 (Homo sapiens, UniProt P05067); assay type: biochemical; conditions: pH 7.4

O=C(O)CN(CCN(CC(=O)O)CC(=O)O)CC(=O)O [EDTA, 2,2′,2′′,2′′′-(ethane-1,2-diyldinitrilo)tetraacetic acid]
ROS production: % of Asc consumption in 30 min (CuAβ1–16 complex): 11.3% | ROS production: % of ROS arrest (CuAβ1–16 complex): 88.7% | ROS production: % of Asc consumption in 30 min (CuZnAβ1–16): 100% | ROS production: % of ROS arrest (CuZnAβ1–16): 0%
